Test results as given in patent publication US8367695B2, “Condensed tetrahydroquinoline derivative and use thereof for medical purposes” (Mitsubishi Tanabe Pharma Corporation, priority 2007, dated 2013).

Target: T1, human recombinant glucocorticoids receptor (GR) (Homo sapiens, UniProt P04150)
T1 sequence (P04150 1-777): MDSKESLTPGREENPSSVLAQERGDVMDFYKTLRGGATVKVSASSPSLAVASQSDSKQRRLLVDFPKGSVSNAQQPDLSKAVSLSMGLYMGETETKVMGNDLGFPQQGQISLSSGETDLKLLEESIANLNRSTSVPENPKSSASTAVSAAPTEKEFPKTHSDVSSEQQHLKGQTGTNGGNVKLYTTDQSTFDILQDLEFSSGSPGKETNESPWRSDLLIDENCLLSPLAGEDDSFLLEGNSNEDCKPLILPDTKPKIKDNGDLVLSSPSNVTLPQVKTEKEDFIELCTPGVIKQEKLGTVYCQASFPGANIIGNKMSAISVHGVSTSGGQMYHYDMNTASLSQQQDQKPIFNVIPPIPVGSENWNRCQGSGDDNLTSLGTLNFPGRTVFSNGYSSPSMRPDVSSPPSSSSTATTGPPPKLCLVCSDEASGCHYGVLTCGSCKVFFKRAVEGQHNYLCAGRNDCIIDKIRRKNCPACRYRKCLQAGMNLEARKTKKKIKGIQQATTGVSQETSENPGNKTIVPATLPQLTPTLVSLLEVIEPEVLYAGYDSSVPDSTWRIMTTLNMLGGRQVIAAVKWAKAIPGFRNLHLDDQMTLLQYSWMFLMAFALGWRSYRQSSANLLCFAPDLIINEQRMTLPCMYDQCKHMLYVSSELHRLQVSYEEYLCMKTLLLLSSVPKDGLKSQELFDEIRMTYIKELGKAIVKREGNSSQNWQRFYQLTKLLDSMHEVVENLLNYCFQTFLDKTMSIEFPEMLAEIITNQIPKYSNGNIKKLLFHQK
Experiment: Radioactive ligand binding test, GR cytosol, [3H]-Dex
Settings: [3H]-Dex about 5 nM, GR cytosol, 4° C.; Cheng-Prusoff, Kd about 3.1 nM; read-out: GR (Ki: nM)
Experimental: Radioactive Ligand Binding Test Using Cytosols of Human Glucocorticoids Receptor, Progesterone Receptor and Mineralocorticoid Receptor
Opthalmol. Vis. […] In brief, cytosol preparations of human recombinant glucocorticoids receptor (GR) and human recombinant progesterone receptor-B (PRB) were purchased from Invitrogen (Carlsbad, Calif.), and a cytosol preparation of human recombinant mineralocorticoid receptor (MR) was prepared by our company (Yokohama, JP). MR cDNA was cloned into a baculovirus expression vector and expressed in insect cell Sf9. […] [^3H]-Dexamethasone (Dex, specific activity 91.0 Ci/mmol) was purchased from GE Healthcare (Buckinghamshire, UK), and [^3H]-progesterone (Prog, specific activity 103 Ci/mmol) and [3H]-aldosterone (Ald, specific activity 87.9 Ci/mmol) were each purchased from PerkinElmer (Boston, Mass.). Polypropylene round-bottomed 96 well plate was obtained from ABgene (Epsom, UK). Dimethyl Sulfoxide (DMSO) and hydrochloric acid were obtained from Kanto Chemical (TOKYO, JP). Trizma Base (Tris), Bovine Serum Albumin (BSA) and Sodium tungstate dihydrate were obtained from Sigma Chemicals (St. Louis, Mo.). Dithiothreitol (DTT) and Dextran 70 were obtained from GE Healthcare (Buckinghamshire, UK). Glycerol was obtained from Junsei Chemical (TOKYO, JP). Norit® “SX-II” was obtained from Wako Pure Chemical Industries, Ltd. (Osaka, JP). MeltiLex™, A, Printed Filtermat A and Sample Bag were obtained from PerkinElmer (Boston, Mass.).
As a buffer for GR binding assay, 25 mM Tris-HCl (4° C., pH 7.4)/1 mM EDTA·2Na/1 mM DTT/0.1% BSA was prepared and used. As buffers for PRB and MR binding assay, 10 mM Tris-HCl (4° C., pH 7.4)/1 mM DTT/0.1% BSA/10% glycerol and 20 mM Tris-HCl (4° C., pH 7.4)/1 mM EDTA·2Na/10% glycerol/20 mM sodium tungstate were respectively prepared and used.
Compound storage solutions (5-20 mM) were prepared using DMSO. The storage solutions were diluted with DMSO to 0.1 mM (for GR) and 0.3 mM (for PRB and MR), and further diluted 20-fold with distilled water to give solutions. Then, the preparations were diluted to each concentration with 5% DMSO solution. 1% DMSO was present at the time of the binding assay.
GR, PRB and MR binding reactions were performed in 96 well plate (ABgene). In the case of GR binding assay, [^3H]-Dex (about 5 nM), GR cytosol (concentration of function receptor: about 4 pmol/mL), a test compound and a binding buffer were mixed in a total volume of 50 μL, and the mixture was stood at 4° C. for 30 min or longer. A specific binding was defined to be the difference in the [^3H]-Dex binding between the presence and the absence of 1 μM unlabeled Dex.
After the reaction, 50 μL of DCC was added to each well and blended. Thereafter, the mixture was stood at 4° C. for 10 min. The plate was applied to high-speed cooling centrifuge under the conditions of 4° C., 2000 rpm, 5 min to perform B/F separation. A given amount of the supernatant was recovered, which was spotted on Filtermat A of 96 well format (PerkinElmer) and rapidly dried at a high temperature.
Measurement of Inhibition Constant (Ki)
Ki of the test compound was determined by the following Cheng-Prusoff equation: Ki=IC50/(1+[L*]/Kd) • wherein L* is a concentration of radioactive ligand and Kd is a dissociation constant for radioactive ligand determined by saturation analysis.

| Compound | Ki [nM] |
| --- | --- |
| CC1(C)Nc2c(cc(-c3cccc4ncccc34)c3occc23)C(C)(C)C1=O [Example 101, 2,2,4,4-tetramethyl-6-(quinolin-5-yl)-1,2,3,4-tetrahydro-furo [2,3-h]quinolin-3-one] | 35 |
| CC1(C)Nc2c(cc(-c3ccnc4ncccc34)c3occc23)C(C)(C)C1=O [Example 102, 2,2,4,4-tetramethyl-6-([1,8]naphthyridin-4-yl)-1,2,3,4-tetrahydro-furo[2,3-h]quinolin-3-one] | 66 |
| Cc1noc(C)c1-c1cc2c(c3c1C(=O)CC3)NC(C)(C)C(=O)C2(C)C [Example 104, 6-(3,5-dimethylisoxazol-4-yl)-2,2,4,4-tetramethyl-2,3,4,7,8,9-hexahydro-1H-cyclopenta[h]quinoline-3,7-dione] | 60 |
